Results reported in article PMC3731163 (MedChemComm, 2013).
Read-outs that look alike come from different tables or passages of the source.

What was measured:
H37Rv Mtb [1] = assay: Whole cell antitubercular activity; format: cell-based, Mycobacterium tuberculosis
Mtb Dxr [2] = target: T1, Mtb Dxr (Mycobacterium tuberculosis, UniProt P9WNS1); settings: see also Supplementary Figure 1; cited from earlier work
H37Rv Mtb [3] = settings: cited from earlier work
Mtb Dxr [4] = target: T1, Mtb Dxr; assay: Classical competition experiments; format: biochemical; settings: double reciprocal plots

T1 sequence (P9WNS1 whole entry): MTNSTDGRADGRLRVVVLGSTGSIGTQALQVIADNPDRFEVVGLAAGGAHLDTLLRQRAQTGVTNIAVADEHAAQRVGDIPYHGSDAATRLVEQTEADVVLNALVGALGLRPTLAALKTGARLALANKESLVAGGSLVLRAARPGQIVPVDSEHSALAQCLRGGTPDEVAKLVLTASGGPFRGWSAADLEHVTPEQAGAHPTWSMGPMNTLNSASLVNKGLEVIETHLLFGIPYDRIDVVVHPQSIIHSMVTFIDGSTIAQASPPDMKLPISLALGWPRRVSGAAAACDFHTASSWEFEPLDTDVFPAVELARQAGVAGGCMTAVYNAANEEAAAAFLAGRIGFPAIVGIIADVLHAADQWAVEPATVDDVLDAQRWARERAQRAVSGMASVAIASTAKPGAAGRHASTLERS

Compound | inhibition of Mtb growth (in words) (H37Rv Mtb [1]) | mode of inhibition with respect to DXP (Mtb Dxr [2]) | other results
CCOP(=O)(CCCN(O)C(=O)CCCc1ccccc1)OCC [18b] | display measurable antitubercular activity |  | inhibition of Mtb growth (in words) (H37Rv Mtb [1]; listed as diethyl ester of 8): inhibits Mtb growth
CCOP(=O)(CCCN(O)C=O)OCC [Diethyl-1] | display measurable antitubercular activity |  | 
O=CN(O)CCCP(=O)(O)O [Compound 1, Fosmidomycin] | do not inhibit Mtb | competitive | activity against Mtb (in words) (H37Rv Mtb [3]): inactive
O=C(CCCc1ccccc1)N(O)CCCP(=O)([O-])O.[Na+] [Compound 8] | do not inhibit Mtb |  | mode of inhibition with respect to DXP (Mtb Dxr [4]): competitive; mode of inhibition with respect to NADPH (Mtb Dxr [4]): noncompetitive
CC(=O)N(O)CCCP(=O)([O-])O.[Na+] [Compound 2, FR900098] | do not inhibit Mtb | competitive | mode of inhibition relative to NADPH (Mtb Dxr [2]): uncompetitive
